Holding throughout (assay type): biochemical
One assay has as its target VEGFR2 (Homo sapiens, UniProt P35968). In words: In vitro enzymatic activity assay on VEGFR2 (HTRF). Particulars: GST-VEGFR2 0.1 nM, ATP 2.5 μM. The protocol: 3. n Vitro Enzymatic Activity Assay for Compounds on VEGFR2
The compounds were diluted 5-fold with 100% DMSO starting from 1 mM (7 concentrations in total), and 2 μL of each concentration was added to 48 μL of reaction buffer (50 mM HEPES pH 7.5, 0.1 mM Na3VO4, 5 mM MgCl2, 1 mM MnCl2, 1 mM DTT, 0.001% Tween 20, and 100 μg/ml BSA) for dilution and mixing. 2.5 μL of compounds and 5 μL of GST-VEGFR2 (final concentration of 0.1 nM) were added to a 384-well plate (OptiPlate-384, purchased from PerkinElmer), the mixture was mixed by centrifugation, and 2.5 μL of ATP (final concentration of 2.5 μM) and TK Peptide Substrate mixture (final concentration of 1 μM, purchased from Cisbio) were added to start the reaction, with a total reaction volume of 10 μL. The 384-well plate was placed in an incubator and reacted at 23° C. for 1.5 h before the reaction was stopped by the addition of 5 μL of TK Antibody (purchased from Cisbio) and 5 μL of Streptavidin-XL665 (purchased from Cisbio). After further incubation in the incubator for 1 h. fluorescence values (excitation at 320 nm, detecting emitted light at 665 nm and 620 nm, and a ratio of the two as an enzyme activity signal) were read on Envision (purchased from PerkinElmer). The enzymatic activity signal of VEGFR2 was measured at 7 concentrations for each compound and the data were calculated using GraphPad Prism software to obtain the IC50 value for the compound.
For orientation: TR-FRET usually uses a lanthanide donor and a delayed reading to cut background.

In a further assay the target is T1, RET^V804M (Homo sapiens, UniProt P07949, V804M).
T1 construct: GST-RET^V804M (658-1114 aa, final concentration of 0.02 nM)
T1 sequence (P07949 658-1114 V804M): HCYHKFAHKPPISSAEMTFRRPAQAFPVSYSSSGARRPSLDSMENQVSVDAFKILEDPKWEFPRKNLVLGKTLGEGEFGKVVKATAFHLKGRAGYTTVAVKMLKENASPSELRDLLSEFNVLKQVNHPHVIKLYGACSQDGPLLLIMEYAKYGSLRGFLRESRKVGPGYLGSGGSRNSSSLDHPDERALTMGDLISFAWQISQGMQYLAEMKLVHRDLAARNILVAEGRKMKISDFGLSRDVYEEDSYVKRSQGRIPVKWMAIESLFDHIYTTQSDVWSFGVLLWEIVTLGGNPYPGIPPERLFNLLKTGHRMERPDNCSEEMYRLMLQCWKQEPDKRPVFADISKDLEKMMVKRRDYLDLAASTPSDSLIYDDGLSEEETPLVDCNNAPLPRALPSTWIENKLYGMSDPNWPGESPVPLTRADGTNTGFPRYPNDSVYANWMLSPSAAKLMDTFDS
In words: In vitro enzymatic activity assay on RET^V804M (HTRF). Particulars: GST-RET^V804M (658-1114 aa) 0.02 nM, ATP 1.5 μM.

For a further assay, the target named is T2, RET^WT (Homo sapiens, UniProt P07949).
T2 construct: GST-RET^WT (658-1114 aa, final concentration of 0.5 nM)
T2 sequence (P07949 658-1114): T1 sequence (P07949 658-1114 V804M) with M147V
In words: In vitro enzymatic activity assay on RET^WT (HTRF). Particulars: GST-RET^WT (658-1114 aa) 0.5 nM, ATP 25 μM. The protocol:
1. In Vitro Enzymatic Activity Assay for Compounds on RET^WT
The compounds were diluted 5-fold with 100% DMSO starting from 0.2 mM (7 concentrations in total), and 2 μL of each concentration was added to 48 μL of reaction buffer (50 mM HEPES pH7.5, 0.1 mM Na3VO4, 5 mM MgCl2. 1 mM DTT, 0.001% Tween 20, and 100 μg/ml BSA) for dilution and mixing.
The 384-well plate was placed in an incubator and reacted at 23° C. for 2 h before the reaction was stopped by the addition of 5 μL of TK Antibody (purchased from Cisbio) and 5 μL of Streptavidin-XL665 (purchased from Cisbio). […] The enzymatic activity signal of RET^WT was measured at 7 concentrations for each compound and the data were calculated using GraphPad Prism software to obtain the IC50 value for the compound.

Here are results for 15 compounds from US12583855B2, “RET selective inhibitor, preparation method therefor and use thereof” (SHOUYAO HOLDINGS (BEIJING) CO., LTD., priority 2019, dated 2026).

Numbering of substitutions follows the chain as printed.

A word on the IC50: it is the concentration at which inhibition is half-maximal. A low value points to greater potency in that assay.

VEGFR2, sequence (P35968 20-1356): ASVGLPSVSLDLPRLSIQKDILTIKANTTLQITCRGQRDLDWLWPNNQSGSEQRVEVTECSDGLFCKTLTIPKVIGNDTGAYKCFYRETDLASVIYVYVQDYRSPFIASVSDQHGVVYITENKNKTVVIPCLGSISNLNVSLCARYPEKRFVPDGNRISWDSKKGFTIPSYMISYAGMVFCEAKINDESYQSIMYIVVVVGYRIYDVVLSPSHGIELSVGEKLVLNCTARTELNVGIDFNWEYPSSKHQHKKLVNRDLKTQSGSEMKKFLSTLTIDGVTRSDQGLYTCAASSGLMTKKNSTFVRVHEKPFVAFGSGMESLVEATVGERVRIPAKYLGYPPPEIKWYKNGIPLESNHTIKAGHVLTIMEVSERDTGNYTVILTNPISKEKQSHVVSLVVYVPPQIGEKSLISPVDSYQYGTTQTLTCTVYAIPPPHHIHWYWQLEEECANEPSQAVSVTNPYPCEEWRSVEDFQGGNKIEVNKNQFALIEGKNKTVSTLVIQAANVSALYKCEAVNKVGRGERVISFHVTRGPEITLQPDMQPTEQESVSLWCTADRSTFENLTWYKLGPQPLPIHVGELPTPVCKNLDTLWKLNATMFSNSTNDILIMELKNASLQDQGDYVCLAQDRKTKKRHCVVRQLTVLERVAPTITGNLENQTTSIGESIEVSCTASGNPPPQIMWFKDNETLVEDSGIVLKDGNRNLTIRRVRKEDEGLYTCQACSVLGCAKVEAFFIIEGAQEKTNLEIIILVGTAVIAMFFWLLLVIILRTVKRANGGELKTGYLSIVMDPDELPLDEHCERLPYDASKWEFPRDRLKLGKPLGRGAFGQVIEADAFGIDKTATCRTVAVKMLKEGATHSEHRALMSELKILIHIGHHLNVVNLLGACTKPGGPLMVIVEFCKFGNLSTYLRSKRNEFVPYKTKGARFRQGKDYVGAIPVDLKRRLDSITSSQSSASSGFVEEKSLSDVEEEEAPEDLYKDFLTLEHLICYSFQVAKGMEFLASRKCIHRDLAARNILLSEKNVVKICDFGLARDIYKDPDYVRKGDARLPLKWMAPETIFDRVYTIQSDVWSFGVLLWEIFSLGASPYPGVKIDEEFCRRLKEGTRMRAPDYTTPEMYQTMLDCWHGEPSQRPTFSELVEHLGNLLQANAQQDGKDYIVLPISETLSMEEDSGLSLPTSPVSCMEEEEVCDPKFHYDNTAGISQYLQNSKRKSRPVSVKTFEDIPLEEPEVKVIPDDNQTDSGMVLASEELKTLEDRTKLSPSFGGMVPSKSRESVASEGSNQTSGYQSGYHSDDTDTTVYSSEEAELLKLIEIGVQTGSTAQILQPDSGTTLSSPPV

As to `CSc1ccc(CN2C3CCC2CN(c2ccc(-c4cc(-c5cnn(C(F)F)c5)cn5ncc(C#N)c45)cn2)C3)cn1` [Example 73, 6-(1-(difluoromethyl)-1Hpyrazol-4-yl)-4-(6-(8-((6-(methylthio)pyridin-3-yl)methyl)-3,8-diazabicyclo[3.2.1]octan-3-yl)pyridin-3-yl)pyrazolo[1,5-a]pyridine-3-carbonitrile], the IC50 at VEGFR2 worked out at 65.4 nM; on RET^V804M, 5.89 nM; against RET^WT it was 0.753 nM.

Regarding `CS(=O)(=O)c1ccc(CN2C3CC2CN(c2ccc(-c4cc(N5CC(C#N)C5)cn5ncc(C#N)c45)cn2)C3)cc1` [Example 35, 6-(3-cyanoazetidin-1-yl)-4-(6-(6-(4-(methylsulfonyl)benzyl)-3,6-diazabicyclo[3.1.1]heptan-3-yl)pyridin-3-yl)pyrazolo[1,5-a]pyridine-3-carbonitrile], the IC50 on VEGFR2 stood at 9.6 nM; on RET^V804M, 1.47 nM; against RET^WT, 0.172 nM.

Regarding `COc1ccc(CN2C3CC2CN(c2ccc(-c4cc(N5CC(O)(C(F)(F)F)C5)cn5ncc(C#N)c45)cn2)C3)cn1` [Example 28, 6-(3-hydroxy-3-(trifluoromethyl)azetidin-1-yl)-4-(6-(6-((6-methoxypyridin-3-yl)methyl)-3,6-diazabicyclo[3.1.1]heptan-3-yl)pyridin-3-yl)pyrazolo[1,5-a]pyridine-3-carbonitrile], the IC50 is 2.5 nM at RET^V804M and 0.757 nM at RET^WT.

Regarding `C=CC(=O)N1CCN(c2ccc(-c3cc(-c4cnn(C)c4)cn4ncc(C#N)c34)cn2)CC1` [Example 1, 4-(6-(4-acryloylpiperazin-1-yl)pyridin-3-yl)-6-(1-methyl-1Hpyrazol-4-yl)pyrazolo[1,5-a]pyridine-3-carbonitrile], the values for the IC50 against VEGFR2, at RET^V804M and against RET^WT were 4.49 nM, 1.21 nM and 0.352 nM, respectively.

Turning to `COc1ccc(CN2C3CC2CN(c2ccc(-c4cc(N5CC6(COC6)C5)cn5ncc(C#N)c45)cn2)C3)cn1` [Example 14, 4-(6-(6-((6-methoxypyridin-3-yl)methyl)-3,6-diazabicyclo[3.1.1]heptan-3-yl)pyridin-3-yl)-(2-oxa-azaspiro[3.3]hepta-6-yl)pyrazolo[1,5-a]pyridine-3-carbonitrile], the IC50 against VEGFR2 turned out to be 1.55 nM; on RET^V804M, 0.629 nM; against RET^WT it was 0.762 nM.

Consider `COc1ccc(CN2CCN(c3ccc(-c4cc(N5CC(OC)C5)cn5ncc(C#N)c45)cn3)CC2)cn1` [Example 33, 6-(3-methoxyazetidin-1-yl)-4-(6-(4-((6-methoxypyridin-3-yl)methyl)piperazin-1-yl)pyridin-3-yl)pyrazolo[1,5-a]pyridine-3-carbonitrile], for which the concentration for half-maximal inhibition (IC50) came to 7.5 nM at VEGFR2, 2.84 nM against RET^V804M and 0.944 nM at RET^WT.

For the compound `CS(=O)(=O)c1ccc(CN2C3CC2CN(c2ccc(-c4cc(N5CC(F)(F)C5)cn5ncc(C#N)c45)cn2)C3)cc1` [Example 36, 6-(3,3-difluoroazetidin-1-yl)-4-(6-(6-(4-(methylsulfonyl)benzyl)-3,6-diazabicyclo [3.1.1]heptan-3-yl)pyridin-3-yl)pyrazolo[1,5-a]pyridine-3-carbonitrile], the IC50 came to 16.9 nM against VEGFR2, 2.58 nM on RET^V804M and 0.179 nM against RET^WT.

Regarding `CSc1cccc(CN2C3CC2CN(c2ccc(-c4cc(-c5cnn(C(F)F)c5)cn5ncc(C#N)c45)cn2)C3)n1` [Example 74, 6-(1-(difluoromethyl)-1Hpyrazol-4-yl)-4-(6-(6-((6-(methylthio)pyridin-2-yl)methyl)-3,6-diazabicyclo[3.1.1]heptan-3-yl)pyridin-3-yl)pyrazolo[1,5-a]pyridine-3-carbonitrile], the IC50 against VEGFR2 came out at 14.4 nM; at RET^V804M, 4.19 nM; on RET^WT, 0.676 nM.

`COc1ccc(CN2C3CC2CN(c2ccc(-c4cc(N5CC(C#N)C5)cn5ncc(C#N)c45)cn2)C3)cn1` [Example 13, 6-(3-cyanoazetidin-1-yl)-4-(6-(6-((6-methoxypyridin-3-yl)methyl)-3,6-diazabicyclo[3.1.1]heptan-3-yl)pyridin-3-yl)pyrazolo[1,5-a]pyridine-3-carbonitrile]: the results for the IC50 at VEGFR2, against RET^V804M and on RET^WT were 3.44 nM, 0.332 nM and 0.421 nM, respectively.

On to `CC(C)(O)COc1cc(-c2ccc(N3CC4CC(C3)N4Cc3ccc(S(C)(=O)=O)cc3)nc2)c2c(C#N)cnn2c1` [Example 38, 6-(2-hydroxy-2-methylpropoxy)-4-(6-(6-(4-(methylsulfonyl)benzyl)-3,6-diazabicyclo[3.1.1]heptan-3-yl)pyridin-3-yl)pyrazolo[1,5-a]pyridine-3-carbonitrile], for which the IC50 on VEGFR2 came to 40.3 nM; against RET^WT it was 0.419 nM.

With `COc1ccc(CN2C3CC2CN(c2ccc(-c4cc(N5CC6(CCOCC6)C5)cn5ncc(C#N)c45)cn2)C3)cn1` [Example 30, 4-(6-(6-((6-methoxypyridin-3-yl)methyl)-3,6-diazabicyclo[3.1.1]heptan-3-yl)pyridin-3-yl)-6-(7-oxa-2-azaspiro[3.5]nonan-2-yl) pyrazolo[1,5-a]pyridine-3-carbonitrile], the IC50 is 1.11 nM at RET^V804M and 0.68 nM against RET^WT.

Take `CSc1ccc(CN2C3CC2CN(c2ccc(-c4cc(-c5cnn(C(F)F)c5)cn5ncc(C#N)c45)cn2)C3)nc1` [Example 66, 6-(1-(difluoromethyl)-1Hpyrazol-4-yl)-4-(6-(6-((5-(methylthio)pyridin-2-yl)methyl)-3,6-diazabicyclo[3.1.1]heptan-3-yl)pyridin-3-yl)pyrazolo[1,5-a]pyridine-3-carbonitrile]: the figures for the IC50 on VEGFR2 and on RET^WT were 2.94 nM and 0.268 nM, respectively.

For the compound `CS(=O)(=O)c1ccccc1CN1CCN(c2ccc(-c3cc(-c4cnn(C(F)F)c4)cn4ncc(C#N)c34)cn2)CC1` [Example 48, 6-(1-difluoromethyl-1Hpyrazol-4-yl)-4-(6-(4-(2-(methylsulfonyl)benzyl)piperazin-1-yl)pyridin-3-yl)pyrazolo[1,5-a]pyridine-3-carbonitrile], the IC50 against VEGFR2 worked out at 10.1 nM; against RET^WT it was 0.57 nM.

Regarding `CSc1ccc(CN2C3CC2CN(c2ccc(-c4cc(OCC(C)(C)O)cn5ncc(C#N)c45)cn2)C3)cn1` [Example 11, 6-(2-hydroxy-2-methylpropoxy)-4-(6-(6-((6-(methylthio)pyridin-3-yl)methyl)-3,6-diazabicyclo[3.1.1]heptan-3-yl)pyridin-3-yl)pyrazolo[1,5-a]pyridine-3-carbonitrile], the IC50 at VEGFR2 came to 37 nM; against RET^WT it was 1.73 nM.

For the compound `CS(=O)(=O)c1ccc(CN2CCN(c3ccc(-c4cc(-c5cnn(C(F)F)c5)cn5ncc(C#N)c45)cn3)CC2)cc1` [Example 49, 6-(1-difluoromethyl-1Hpyrazol-4-yl)-4(6-(4-(4-(methylsulfonyl)benzyl)piperazin-1-yl)pyridin-3-yl)pyrazolo[1,5-a]pyridine-3-carbonitrile], the results for the IC50 on VEGFR2 and on RET^WT were 18.2 nM and 0.94 nM, respectively.
